Measured values as given in article PMC3605511, “Tumor P-Glycoprotein Correlates with Efficacy of PF-3758309 in in vitro and in vivo Models of Colorectal Cancer” (Frontiers in Pharmacology, 2013).

Key:
BCRP = molecular target: T1, BCRP (Homo sapiens, UniProt Q9UNQ0); assay: BCRP-MDCKII-LE transwell assay (BCRP efflux); format: in vitro ADME; set-up: A → B: scale not given here
T1 construct: expressed in transfected cells; host or cells: BCRP-MDCKII-LE cells (canine MDCKII subpopulation with low endogenous P-gp)
T1 sequence (Q9UNQ0 whole entry): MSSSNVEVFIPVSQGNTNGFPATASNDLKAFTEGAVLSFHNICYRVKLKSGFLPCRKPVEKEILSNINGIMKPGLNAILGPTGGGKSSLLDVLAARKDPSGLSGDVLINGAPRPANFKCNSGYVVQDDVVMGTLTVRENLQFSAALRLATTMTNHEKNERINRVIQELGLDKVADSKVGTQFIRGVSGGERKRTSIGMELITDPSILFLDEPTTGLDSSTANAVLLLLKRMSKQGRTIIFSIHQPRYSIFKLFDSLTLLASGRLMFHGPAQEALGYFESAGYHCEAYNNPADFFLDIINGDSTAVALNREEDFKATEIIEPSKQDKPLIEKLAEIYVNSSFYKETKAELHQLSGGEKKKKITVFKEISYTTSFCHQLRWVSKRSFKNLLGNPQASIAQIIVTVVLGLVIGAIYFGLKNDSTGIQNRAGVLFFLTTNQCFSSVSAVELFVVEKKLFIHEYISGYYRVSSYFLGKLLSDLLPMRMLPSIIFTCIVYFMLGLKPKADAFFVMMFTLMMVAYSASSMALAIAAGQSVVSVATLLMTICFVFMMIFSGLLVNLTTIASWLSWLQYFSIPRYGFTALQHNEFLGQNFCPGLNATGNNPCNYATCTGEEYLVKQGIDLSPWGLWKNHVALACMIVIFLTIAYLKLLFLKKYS
Experimental: Permeability and transporter substrate assays were performed as previously published (Feng et al., [2008]; Callegari et al., [2011]; Di et al., [2011]). Permeability assays were conducted in MDCKII-LE cells, which were generated by isolation of a subpopulation of cells with low expression of endogenous P-gp (Feng et al., [2008]; Callegari et al., [2011]; Di et al., [2011]). The use of MDCKII-LE cells are used to measure the passive permeability of compounds in place of MDCK wild-type or Caco-2 cells since both MDCK wild-type and Caco-2 cells are known to have some level of endogenous transporter expression which can affect the permeability measurement. P-gp efflux was determined in MDR1-MDCK cells and BCRP efflux was measured in BCRP-MDCKII-LE cells.
MDR1-MDCK and BCRP-MDCKII-LE transwell assays measure the effect of P-gp and BCRP, respectively, on transcellular flux. The efflux ratio, ratio of the B → A flux to the A → B flux, of PF-309 was measured to be 34.9 ± 7.9 in the MDR1-MDCK assay, indicating it is a strong substrate for P-gp. PF-309 was also determined to be substrate for BCRP as the efflux ratio was measured to be 7.6 ± 1.1. As a reference, compounds with efflux ratios >2 are considered to be substrates (Callegari et al., [2011]).

NCIH508 = assay: Cell proliferation assay, NCIH508; format: cell-based; details: Homo sapiens, NCI-H508; NCIH508, 72 h, SRB assay
Experimental: (§1) Cytotoxic/proliferation effects were determined using the sulforhodamine B (SRB) assay (Skehan et al., [1990]) or by resazurin. Briefly, cells in logarithmic growth phase were transferred to 96 well flat bottom plates with lids. One-hundred microliter cell suspensions containing 1500–5000 viable cells were plated into each well and incubated overnight prior to exposure with increasing concentrations of PF-309 for 3–5 days, dependent upon cell type. Media was removed and cells were fixed with cold 10% trichloroacetic acid for 30 min at 4°C. Cells were then washed with water and stained with 0.4% SRB (Fisher Sci., Pittsburgh, PA, USA) for 30 min at room temperature, washed again with 1% acetic acid, followed by stain solubilization with 10 mM tris at room temperature. The plate was then read on a plate reader (Biotek Synergy 2, Winooski, VT, USA) set at an absorbance wavelength of 565 nm. Cell proliferation curves were derived from the raw absorbance (OD) data.
(§2) Since PF-309 appeared to be a strong P-gp and BCRP substrates, we sought to evaluate if the transporters influenced sensitivity in vitro. We evaluated the sensitivity of CRC cell lines to PF-309 treatment in a panel of 27 lines. Cells were exposed to PF-309 at a range of concentrations for 72 h and cell content measured by SRB assay (see Pitts et al., [2013]). […]

SW620 = assay: Cell proliferation assay, SW620; format: cell-based; details: Homo sapiens, SW-620; SW620, 72 h, SRB assay
Experimental: as §1, §2

SW48 cell line xenograft = assay: CRC cell line xenograft efficacy, SW48; format: in vivo, mice; details: 25 mg/kg orally twice daily, 14–28 days, end of study tumor volumes
Experimental: (§3) For cell line xenografts, CRC cells were harvested in exponential phase growth and resuspended in a 1:1 mixture of serum-free RPMI 1640 and Matrigel (BD Biosciences). Five to ten million cells per mouse were injected subcutaneously into the flank using a 23-gauge needle. Mice were monitored daily for signs of toxicity and were weighed twice weekly. Tumor size was evaluated twice per week by caliper measurements using the following formula: tumor volume = length × width^2 × 0.52. When tumors reached 200–300 mm^3 mice were randomized into two groups with at least 10 tumors per group. Mice were then treated for 14–28 days (until control tumor volume reach ∼1500 mm^3) with either vehicle control (0.5% methylcellulose), or PF-3758309 (25 mg/kg) twice daily by oral gavage.
(§4) Human tumor xenograft models were used to evaluate the efficacy of PF-309 in vivo. Eleven different CRC cell line tumor xenografts were treated with 25 mg/kg PF-309 twice daily by oral gavage for 14–28 days (until control tumor volumes reached ∼1500 mm^3). Tumor volumes were measured throughout the study and the % growth inhibition was calculated from the average end of study tumor volumes by:
(§5) % Growth Inhibition= (average control volume−average treated volume)/average control volume×100%

[1] = system: Colo201 cell line xenograft; assay: CRC cell line xenograft efficacy, Colo201; format: in vivo, mice; details: 25 mg/kg orally twice daily, 14–28 days, end of study tumor volumes
Experimental: as §3, §4, §5

[2] = End of study tumor and plasma concentrations (LC/MS/MS); format: in vivo; details: mice, trough (6–8 h)

## Cc1nc(Nc2n[nH]c3c2CN(C(=O)N[C@H](CN(C)C)c2ccccc2)C3(C)C)c2sccc2n1 [PF-309]
BCRP; dog, ratio of B → A flux to A → B flux, >2 = substrate
  efflux ratio: 7.6
BCRP; transwell flux
  A → B: ;1.4 ± 0.1 cm/s
NCIH508
  IC50: > 1000 nM
SW620
  IC50: 5 ± 3.1 nM
SW48 cell line xenograft
  % Growth inhibition: 45%
[1]
  % Growth inhibition: 45%
[2]
  total plasma concentrations at the trough: 1 to 10 nM
